# From patent US10570117B2, “Phenylimidazole compound” (Otsuka Pharmaceutical Factory, Inc., priority 2015, dated 2020)
# Read-outs that look alike come from different tables or passages of the source.
# How the values were obtained:
# [1] = Solubility in gastric juice or intestinal juice model fluid (precipitation method using DMSO); type: physicochemical; conditions: room temperature
# Summary of the method: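 Dissolved amount (μg/mL) quantified by UV of filtrate versus pre-made calibration curves. Precipitation approach: DMSO solutions spiked into pH 1.2 (JP 1st fluid) or pH 6.8 (JP 2nd fluid) medium, shaken at room temperature for 24 h before insolubles were filtered off.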
# [2] = tested on: lipoprotein lipase (LPL) gene; assay: LPL mRNA elevating action (RT-PCR quantification of LPL mRNA in C2Cl2 cells); type: cell-based, mouse; conditions: Mus musculus, 24 h, compound 10 μM, ratio relative to the amount of LPL mRNA in cells with DMSO only, read-out: Rate of increase in LPL mRNA
# Summary of the method: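 Read-out is LPL mRNA relative to vehicle (DMSO = 1), measured by reverse transcription and 20-cycle real-time PCR. Cells were the mouse striated-muscle line C2Cl2, treated 24 h with 10 μM compound in DMEM containing 10% FBS.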
# [3] = pH 1.2, simulated gastric fluid, kinetic from dmso stock, 1st fluid for Disintegration Test of Japanese Pharmacopoeia (pH: 1.2), read-out: Solubility (μg/mL) 1st fluid
# [4] = pH 6.8, kinetic from dmso stock, 2nd fluid for Disintegration Test of Japanese Pharmacopoeia (pH: 6.8), read-out: Solubility (μg/mL) 2nd fluid
SMILES,"solubility at 24 h [1, 3]","solubility at 24 h [1, 4]",melting point,fold induction at 10 µM [2]
COc1cc(-c2c[nH]c(-c3ccc(Cl)nc3)n2)ccc1OCc1cccc(F)n1 [Example 47],5.1 µg/mL,0.3 µg/mL,185 to 187 °C,3.26
COc1cc(OCc2cccc(C#N)n2)ccc1-c1c[nH]c(C2CCCCC2)n1 [Example 55],> 78 µg/mL,2.3 µg/mL,182 to 187 °C,4.24
COc1c(OCc2ccc(C(F)(F)F)cn2)ccc(-c2c[nH]c(C3CCC(F)(F)CC3)n2)c1OC [Example 57],> 99 µg/mL,0.8 µg/mL,155 to 157 °C,3.72
COc1cc(-c2c[nH]c(C3CCC3)n2)ccc1OCc1ccc(C(F)(F)F)cn1 [Example 73],> 108 µg/mL,5.3 µg/mL,210 to 213 °C (dec.),4.07
COc1cc(OCc2ccncc2C(F)(F)F)ccc1-c1cnc(-c2ccc(Cl)nc2)[nH]1 [Example 100],15 µg/mL,< 0.3 µg/mL,220 to 228 °C,3.05
COc1cc(OCc2ncc(F)cc2F)ccc1-c1cnc(-c2ccc(Cl)nc2)[nH]1 [Example 103],36 µg/mL,< 0.3 µg/mL,190 to 192 °C,2.36
COc1cc(OCc2ncc(Cl)cc2F)ccc1-c1cnc(-c2ccc(Cl)nc2)[nH]1 [Example 104],20.6 µg/mL,0.7 µg/mL,211 to 218 °C,2.27
COc1cc(OCc2ccnc(C(F)(F)F)c2)ccc1-c1cnc(-c2ccc(Cl)nc2)[nH]1 [Example 107],11.2 µg/mL,9.6 µg/mL,174 to 223 °C,2.68
COc1cc(OCc2cccnc2C(F)(F)F)ccc1-c1cnc(-c2ccc(Cl)nc2)[nH]1 [Example 108],4.1 µg/mL,< 0.3 µg/mL,231 to 233 °C,3.03
"COc1cc(O)ccc1-c1c[nH]c(-c2ccc(F)nc2)n1 [Example 109, 4-[2-(6-fluoropyridin-3-yl)-1H-imidazol-5-yl]-3-methoxyphenol]",> 57 µg/mL,40 µg/mL,249 to 251 °C (dec.),1.76
COc1cc(OCc2cccnc2C(F)(F)F)ccc1-c1cnc(-c2ccc(F)nc2)[nH]1 [Example 112],12 µg/mL,2.1 µg/mL,187 to 190 °C,2.39
COc1cc(OCc2ncc(Cl)cc2F)ccc1-c1cnc(-c2ccc(F)nc2)[nH]1 [Example 141],10.1 µg/mL,< 0.3 µg/mL,174 to 176 °C,2.33
"COc1cc(OCc2ccc(C(F)(F)F)nc2)ccc1-c1nc(-c2ccc(Cl)nc2)n(C)c1C [Example 152, 2-chloro-5-[4-[2-methoxy-4-((6-(trifluoromethyl)pyridin-3-yl)methoxy)phenyl]-1,5-dimethyl-1H-imidazol-2-yl]pyridine]",> 98 µg/mL,< 0.3 µg/mL,185 to 188 °C,3.3
"COc1cc(OCc2ccc(C(F)(F)F)nc2)ccc1-c1c(C)nc(-c2ccc(Cl)nc2)n1C [Example 153, 2-chloro-5-[5-[2-methoxy-4-((6-(trifluoromethyl)pyridin-3-yl)methoxy)phenyl]-1,4-dimethyl-1H-imidazol-2-yl]pyridine]",> 98 µg/mL,1.7 µg/mL,148 to 150 °C,4.61
COc1cc(OCc2ccc(C(F)(F)F)nc2)ccc1-c1nc(-c2ccc(Cl)nc2)n(CC2CC2)c1C [Example 154],104 µg/mL,2 µg/mL,110 to 112 °C,5.78

# Further lines, with some results ahead:
"solubility at 24 h [1, 3]","solubility at 24 h [1, 4]",melting point,SMILES,fold induction at 10 µM [2]
8.6 µg/mL,2.3 µg/mL,147 to 150 °C,COc1cc(OCc2ccc(C(F)(F)F)cn2)ccc1-c1c[nH]c(-c2ccc(Cl)cn2)n1 [Example 42],2.27
16.2 µg/mL,3.4 µg/mL,185 to 187 °C,COc1cc(OCc2ncccc2C(F)(F)F)ccc1-c1c[nH]c(-c2ccc(Cl)nc2)n1 [Example 43],3.48
11.9 µg/mL,0.7 µg/mL,232 to 235 °C (dec.),COc1cc(OCc2ccc(S(=O)(=O)OC)cn2)ccc1-c1c[nH]c(-c2ccc(Cl)nc2)n1 [Example 44],1.14
27.8 µg/mL,< 0.3 µg/mL,221 to 224 °C,COc1cc(OCc2ccncn2)ccc1-c1c[nH]c(-c2ccc(Cl)nc2)n1 [Example 45],1.09
22.9 µg/mL,< 9.1 µg/mL,107 to 110 °C,COc1cc(-c2c[nH]c(-c3ccc(F)nc3)n2)cc(OC)c1OCc1ccc(C(F)(F)F)cn1 [Example 46],2.49
8.7 µg/mL,0.9 µg/mL,196 to 199 °C,COc1cc(OCc2ccc(C(F)(F)F)nc2)ccc1-c1nc(-c2ccc(Cl)nc2)[nH]c1C [Example 49],3.46
4.8 µg/mL,0.8 µg/mL,204 to 206 °C,COc1cc(-c2c[nH]c(-c3ccc(Cl)nc3)n2)c(OC)cc1OCc1ccc(C(F)(F)F)cn1 [Example 56],2.57
77.3 µg/mL,1.3 µg/mL,137 to 142 °C,COc1cc(OCc2ccc(C(F)(F)F)cn2)ccc1-c1c[nH]c(C2CCC(C)CC2)n1 (centres unmarked) [Example 65],2.89
104 µg/mL,2.3 µg/mL,129 to 132 °C,COc1cc(OCc2ccc(C(F)(F)F)cn2)ccc1-c1nc(-c2ccc(Cl)nc2)[nH]c1C [Example 68],2.45
8.7 µg/mL,1.3 µg/mL,226 to 228 °C,COc1cc(OCc2ccc(C(F)(F)F)cn2)ccc1-c1c[nH]c(C2CCCCC2)n1 [Example 77],3.11
10.6 µg/mL,1.2 µg/mL,187 to 189 °C,COc1ccc(-c2nc(-c3ccc(OCc4ccc(C(F)(F)F)cn4)cc3OC)c[nH]2)cn1 [Example 79],1.42
84.9 µg/mL,0.4 µg/mL,203 to 205 °C,COc1cc(OCc2ccc(C(F)(F)F)cn2)ccc1-c1c[nH]c(-c2ccc(C)nc2)n1 [Example 80],2.01
85.4 µg/mL,1.8 µg/mL,240 to 242 °C,COc1cc(OCc2ccc(C(F)(F)F)cn2)ccc1-c1c[nH]c(-c2cccnc2)n1 [Example 89],1.69
31.2 µg/mL,6.3 µg/mL,191 to 203 °C,COc1cc(OCc2cncc(C(F)(F)F)c2)ccc1-c1cnc(-c2ccc(Cl)nc2)[nH]1 [Example 106],2.66
80.2 µg/mL,2.1 µg/mL,219 to 223 °C (dec.),COc1cc(OCc2ncc(C)cc2C)ccc1-c1c[nH]c(-c2ccc(F)nc2)n1 [Example 118],2.91
> 89 µg/mL,1.8 µg/mL,201 to 202 °C,COc1cc(OCc2ncccc2C(F)(F)F)ccc1-c1c[nH]c(-c2ccc(F)nc2)n1 [Example 121],3.38
71.8 µg/mL,2.9 µg/mL,167 to 170 °C,COc1cc(OCc2cnc(C)cn2)ccc1-c1c[nH]c(-c2ccc(F)nc2)n1 [Example 122],1.7
18.7 µg/mL,< 1.6 µg/mL,141 to 144 °C,COc1cc(OCc2ccc(C(F)(F)F)cn2)ccc1-c1c[nH]c(-c2ccc(F)nc2)n1 [Example 124],2.28
87.4 µg/mL,< 0.3 µg/mL,178 to 180 °C,COc1cc(OCc2cnccc2C(F)(F)F)ccc1-c1cnc(-c2ccc(F)nc2)[nH]1 [Example 131],3.66
5.9 µg/mL,< 0.3 µg/mL,185 to 187 °C,COc1cc(OCc2ncc(C(F)(F)F)cc2Cl)ccc1-c1cnc(-c2ccc(F)nc2)[nH]1 [Example 132],2.77
29.3 µg/mL,2 µg/mL,153 to 170 °C,COc1cc(OCc2ncc(C(F)(F)F)cc2Br)ccc1-c1cnc(-c2ccc(F)nc2)[nH]1 [Example 133],2.43
6.8 µg/mL,2.2 µg/mL,212 to 244 °C,COc1cc(OCc2ccnc(C(F)(F)F)c2)ccc1-c1cnc(-c2ccc(F)nc2)[nH]1 [Example 135],3.14
> 89 µg/mL,2.2 µg/mL,181 to 192 °C,COc1cc(OCc2ccncc2C(F)(F)F)ccc1-c1cnc(-c2ccc(F)nc2)[nH]1 [Example 136],2.71
